From US7476729B2, “Dbait and uses thereof” (Institut Curie, priority 2003, dated 2009)

Assays:
[1] = test system: DNA end-joining reaction in the nuclear extracts of Hep2 cells; test: DNA end-joining assay in Hep2 nuclear extract; type: biochemical, human; details: for ligation of DNA fragments in cell-free assay: 2 h incubation with various Dbait
Method: DNA end-joining was monitored by incubating ^32P-labeled 605-bp linear DNA fragments with Hep2 nuclear extract in the presence of various Dbait molecules. Ligation products migrate as dimers, trimers or tetramers, starting 605 bp monomer.
Approximately 16% of the ^32P-labeled blunt linear duplex DNA molecules were ligated into dimers and trimers during the first 2 h of incubation. The amount of high molecular weight ligation products increased up to 30% of the total input DNA after 16 h. […] In most experiments, Dbait32H (SEQ ID NO: 1) was added simultaneously with the labeled DNA fragments to the nuclear extract.
Various Dbait molecules were tested for their effect on the cell-free assay by adding the molecules to nuclear extract and incubating for 2 h with the DNA fragments.
(§1) DNA-PK activity was monitored using the kit SignaTECT DNA-dependent Protein Kinase Assay System (Promega, Madison, USA). Increasing amounts of Hep2 nuclear extract (cleaned of endogenous DNA by DEAE-Sepharose filtration) were assayed in the presence of 250 nM Dbait. Extract, biotinylated peptide substrate and various amount of nuclear extract were incubated 5 minutes at 30° C. with (γ-^32P)ATP according to manufacturer indications. The biotinylated substrate was capture on streptavidine membrane, washed and counted in a scintillation counter. Percentage of phosphorylation is calculated by dividing the bound radioactivity by the total count of (γ-^32P)ATP per sample. Reactions (10 μl) were carried out in 60 mM KOAc, 100 μg/ml BSA, 0.5 mM Mg(Cl)2, 1 μl T4 DNA ligase 10× buffer (Promega, Madison, USA). Nuclear extract and Dbait were incubated 2 minutes before addition of ^32P-labeled DNA (10 ng). Samples were incubated various time at 37° C. before ligation being stopped by 20 mM EDTA and 1 mg/ml Proteinase K addition. Ligation products were analyzed by electrophoresis through 0.7% agarose gels followed by autoradiography and quantification by phosphorimaging.

SK28 xenografted tumors = test: Radiosensitization of SK28 melanoma xenografted on nude mice; type: in vivo; details: SK, 6 × 5 Gy, 6 × 60 μg (3 nmole); for Relative risk: reference C* (Mock + irradiation)
Method: The protocol of Hep2 was described in FIG. 4.3. Other tumors were treated by a modified protocol where a 5 Gy fractionated irradiation was applied in three consecutive days, and followed four day rest, and the treatment was repeated once. The total irradiation dose (6×5 Gy) is equal to that of the protocol used to treat Hep2 tumor (15×2 Gy).
Descriptive analyses of the tumor response were performed for each treatment and each tumor type. Day 1 was the day of the first treatment session. […] Median lifetime was estimated according to the Kaplan-Meier method. TGD was calculated by subtracting the mean tumor volume quadrupling time of the control group from tumor volume quadrupling times of individual mice in each treated group. The mean TGD was calculated for each treated group using the individual measurements.
The analysis used S-Plus 6.2 version software (MathSoft Inc., Seattle, Wash.) and statEL (ad Science, Paris, France). A global Log Rank was first performed for each group with a same tumor type. Then treatments with Dbait were compared to the mock-treated control. All tests were considered significant at the 0.05 significance level.

DNA-PK = molecular target: T1, DNA-PK (Homo sapiens, UniProt P12956+P13010+P78527); test: DNA-dependent protein kinase (DNA-PK) activity assay in Hep2 nuclear extract; type: biochemical; details: 2 μg Dbait, 1.5 μg Hep2 nuclear protein extract
T1 construct: Increasing amounts of Hep2 nuclear extract (cleaned of endogenous DNA by DEAE-Sepharose filtration) were assayed; endogenous in cells; host or cells: Hep2 cells (nuclear extract, DNA removed by DEAE-Sepharose filtration)
Method: as §1
The kinase activity depended directly on the length and structure of the double-stranded ‘stem’ of the Dbait molecule. […] In addition, various backbone modifications (phosphothioate, methyphosphonate, 3′-3′ linkage) at the free blunt end (up to 3-bp), as well as the internally tagged ligands (e.g. fluorescent dyes), are capable of activating DNA-PK activity.

| Substance | DNA end-joining (ligation) ([1]; Dbait added 30 min after the nuclear extract (data not shown)) | DNA end-joining (ligation of 32P-labeled linear DNA fragments) ([1]; Dbait added simultaneously with fragments, 100-fold molar excess) | DNA end-joining (ligation) ([1]; Dbait incubated with the extract for 30 min before addition of fragments) | Mean % TGD (SK28 xenografted tumors) [%] | Mean TGD (SK28 xenografted tumors) | Median survival time (SK28 xenografted tumors) [days] | Number of cured mice (SK28 xenografted tumors) | Relative risk (SK28 xenografted tumors) | ligation of DNA fragments in cell-free assay [1] | DNA-PK activation (kinase activity) (DNA-PK) |
| --- | --- | --- | --- | --- | --- | --- | --- | --- | --- | --- |
| Dbait32H: hairpin double strand DNA with a stem of 32-bp, hexaethyleneglycol linker, phosphorothioate at the free blunt end (DNA ACGCACGGGTGTTGGGTCGTTTGTTCGGATCT; DNA, backbone not given here; hairpin, hexaethyleneglycol loop, 3-bp phosphorothioate at free blunt end) | no inhibition of the ligation | strongly inhibited | extent of inhibition was similar | 422 | 64 | 176 | 2 | 0.22 | – | – |
| Dbait32ss: 32-nt single strand DNA (SEQ ID NO: 1) (DNA ACGCACGGGTGTTGGGTCGTTTGTTCGGATCT; DNA, backbone not given here) | – | – | – | – | – | – | – | – | largely unaffected | – |
| Dbait8H: hairpin double strand DNA with a stem of 8-bp (DNA ACGCACGG; DNA, backbone not given here; hairpin, hexaethyleneglycol loop, 3-bp phosphorothioate at free blunt end) | – | – | – | 194 | 19 | 76 | – | 0.68 | largely unaffected | inefficient |
| Dbait16H: hairpin double strand DNA with a stem of 16-bp (DNA ACGCACGGGTGTTGGG; DNA, backbone not given here; hairpin DNA with hexaethyleneglycol loop, 3-bp phosphorothioate at free blunt end) | – | – | – | – | – | – | – | – | inhibited the ligation as efficiently as Dbait32H | inefficient |
